Broadly, the kcat/KM is the second-order rate constant that governs catalysis at low substrate concentration. The term kcat denotes the number of substrate molecules converted per active site and unit of time at saturation. Usually Km stands for the substrate concentration at which the rate is half of its maximum. As usually defined, the kcat/Km is the turnover number divided by the Michaelis constant.

Starred links: 1 amine or outer side, 2 acyl side, 3 side chain; linkers in the order of their positions; H or OH if unused. Residues, ends and D or L forms follow the SMILES beside them. *: point of attachment. pNA = O=[N+]([O-])c1ccc(N*)cc1; Suc = O=C(CCC(=O)[*:2])[*:1]

Data set [1] has as its target α-chymotrypsin (CT) from bovine pancreas, CT-positive initiator-pCBMA (Bos taurus, UniProt P00766). Briefly: Michaelis-Menten kinetics, Suc-AAPF-pNA hydrolysis, CT-positive initiator-pCBMA. In kind it is biochemical. The settings on record: pH 8, 37° C. The protocol: (§1) CT and Lysozyme were used as received. AChE and Uricase were dialyzed in 25 mM sodium phosphate (pH 7.0) using a 25 kDa molecular weight cutoff dialysis tube in a refrigerator for 24 hours and then lyophilized. Copper (II) chloride, sodium ascorbate, 1,1,4,7,10,10-hexamethyltriethylenetetramine (HMTETA), 2-bromo-2-methylpropionyl bromide, 3-(dimethylamino)-1-propylamine, N,N′-diisopropylcarbodimine, fluorescamine, acetylthiocholine iodide, 5,5′-dithiobis(2-nitrobenzoic acid) (DTNB) were purchased from Sigma Aldrich. 4-bromobutyric acid and N-hydroxysuccinimide were purchased from TCI USA (Portland, OR). Micro BCA assay kit was purchased from Thermo Fisher Scientific. […]
(§2) CT-pCBMA and pSMA conjugate synthesis: A solution of monomer (230 mg for CBMA and 246 mg for SMA, 1.0 mmol respectively) and CT-initiator (23 mg for neutral and 25 mg for positive initiator, 10 μmol of initiator) in 100 mM sodium phosphate (20 mL, pH 7) was sealed and bubbled with nitrogen gas in an ice bath for 30 minutes. […] Conjugate CT content was determined by BCA assay as described elsewhere (Lee et al. 2005, supra). […]
(§3) CT: N-succinyl-Ala-Ala-Pro-Phe-p-nitroanilide (Suc-AAPF-pNA; SEQ ID NO:1) was used as a substrate for CT. […] Michaelis-Menten parameters were determined using nonlinear curve fitting of initial hydrolysis rate versus substrate concentration in GraphPad. […]

In data set [2] the target is α-chymotrypsin (CT) from bovine pancreas, CT-mixed initiator (average of 9 neutral and 5 positive initiators per CT) (Bos taurus, UniProt P00766). Briefly: Michaelis-Menten kinetics, Suc-AAPF-pNA hydrolysis, CT-mixed initiator. The class given is biochemical. The settings on record: pH 8, 37° C. The protocol:
(§4) CT and Lysozyme were used as received. AChE and Uricase were dialyzed in 25 mM sodium phosphate (pH 7.0) using a 25 kDa molecular weight cutoff dialysis tube in a refrigerator for 24 hours and then lyophilized. Copper (II) chloride, sodium ascorbate, 1,1,4,7,10,10-hexamethyltriethylenetetramine (HMTETA), 2-bromo-2-methylpropionyl bromide, 3-(dimethylamino)-1-propylamine, N,N′-diisopropylcarbodimine, fluorescamine, acetylthiocholine iodide, 5,5′-dithiobis(2-nitrobenzoic acid) (DTNB) were purchased from Sigma Aldrich. 4-bromobutyric acid and N-hydroxysuccinimide were purchased from TCI USA (Portland, OR). Micro BCA assay kit was purchased from Thermo Fisher Scientific.
CT: N-succinyl-Ala-Ala-Pro-Phe-p-nitroanilide (Suc-AAPF-pNA; SEQ ID NO:1) was used as a substrate for CT. Substrate (0-20 mg/mL in DMSO, 30 μL) was added to a 1.5 mL cuvette with sodium phosphate buffer (pH 8, 100 mM). […] The initial substrate hydrolysis rate was measured in triplicate by recording the increase in absorbance at 412 nm over the first 60 seconds after mixing using a Lambda 2 Perkin Elmer ultraviolet-visible spectrometer equipped with a temperature-controlled cell holder at 37° C. Michaelis-Menten parameters were determined using nonlinear curve fitting of initial hydrolysis rate versus substrate concentration in GraphPad. […]

The target in data set [3] is α-chymotrypsin (CT) from bovine pancreas, CT-neutral initiator-pCBMA (Bos taurus, UniProt P00766). In words: Michaelis-Menten kinetics, Suc-AAPF-pNA hydrolysis, CT-neutral initiator-pCBMA. In kind it is biochemical. The settings on record: pH 8, 37° C. The method, then: as §1, §2, §3
In data set [4] the target is α-chymotrypsin (CT) from bovine pancreas, CT-positive initiator-pSMA (Bos taurus, UniProt P00766). In words: Michaelis-Menten kinetics, Suc-AAPF-pNA hydrolysis, CT-positive initiator-pSMA. The class given is biochemical. The following applies: pH 8, 37° C.; CT-positive initiator-pSMA vs CT-neutral initiator-pSMA. The protocol:
as §1, §2, §3

In data set [5] the target is α-chymotrypsin (CT) from bovine pancreas, CT-neutral initiator (CT(N)) (Bos taurus, UniProt P00766). In words: Michaelis-Menten kinetics, Suc-AAPF-pNA hydrolysis, CT-neutral initiator. In kind it is biochemical. The settings on record: pH 8, 37° C.; CT-neutral initiator vs native CT. The protocol:
as §1
(§5) CT: N-succinyl-Ala-Ala-Pro-Phe-p-nitroanilide (Suc-AAPF-pNA; SEQ ID NO:1) was used as a substrate for CT. […] The initial substrate hydrolysis rate was measured in triplicate by recording the increase in absorbance at 412 nm over the first 60 seconds after mixing using a Lambda 2 Perkin Elmer ultraviolet-visible spectrometer equipped with a temperature-controlled cell holder at 37° C. Michaelis-Menten parameters were determined using nonlinear curve fitting of initial hydrolysis rate versus substrate concentration in GraphPad. […]

In data set [6] the target is α-chymotrypsin (CT) from bovine pancreas, CT-positive initiator (CT(+)) (Bos taurus, UniProt P00766). In words: Michaelis-Menten kinetics, Suc-AAPF-pNA hydrolysis, CT-positive initiator. In kind it is biochemical. The following applies: pH 8, 37° C.; CT-positive initiator vs native CT. The protocol: as §1, §5
Data set [7] relates to Uricase from Candida sp., positive initiator (+). In words: Michaelis-Menten kinetics, uric acid oxidation, uricase-positive initiator. The class given is biochemical. The settings on record: pH 8.5, 37° C. The method, then: as §4
(§6) Uricase: 200 μL of NHS-functionalized ATRP initiator solution in DMSO (100 μmol, 34 mg for neutral and 52 mg for positive initiator, respectively) was added to Uricase solution (20 mg of […] Uricase in 20 mL of 100 mM phosphate (pH 7.0)) and stirred at room temperature for 2 hours. Uricase-initiator conjugates were dialyzed in 25 mM sodium phosphate (pH 7.0) using a 25 kDa molecular cutoff dialysis tube in a refrigerator for 24 hours and then lyophilized. The concentration of Uricase initiator conjugates was determined using a Micro BCA Assay Kit (ThermoFisher Scientific).
(§7) Uricase: Uric acid (0-400 μL of 300 μM in 50 mM sodium tetraborate (pH 8.5)) was mixed with 50 mM sodium phosphate ([…], pH 8.5). Native, initiator and polymer conjugate solution (10 μL, 20 μM of Uricase) was added to the substrate solution. The initial rate was monitored by recording the decreasing in absorbance as 290 nm using an UV-VIS absorbance spectrometer with a temperature controlled cell folder at 37° C. Michaelis-Menten parameters were determined by nonlinear curve fitting of initial rate versus substrate concentration plots using Prism 7 software (GraphPad).

Data set [8] concerns Uricase from Candida sp., positive initiator (+)-pSMA. In words: Michaelis-Menten kinetics, uric acid oxidation, uricase (+)-pSMA. The class given is biochemical. The settings on record: pH 8.5, 37° C. The method, then: as §4
(§8) Uricase: 200 μL of NHS-functionalized ATRP initiator solution in DMSO (100 μmol, 34 mg for neutral and 52 mg for positive initiator, respectively) was added to Uricase solution (20 mg of […] Uricase in 20 mL of 100 mM phosphate (pH 7.0)) and stirred at room temperature for 2 hours. […] The concentration of Uricase initiator conjugates was determined using a Micro BCA Assay Kit (ThermoFisher Scientific).
as §2
(§9) Uricase: Uric acid (0-400 μL of 300 μM in 50 mM sodium tetraborate (pH 8.5)) was mixed with 50 mM sodium phosphate (990-580 μL, pH 8.5). […] The initial rate was monitored by recording the decreasing in absorbance as 290 nm using an UV-VIS absorbance spectrometer with a temperature controlled cell folder at 37° C. Michaelis-Menten parameters were determined by nonlinear curve fitting of initial rate versus substrate concentration plots using Prism 7 software (GraphPad).

The test system of data set [9] is Uricase from Candida sp., positive initiator (+)-pCBMA. In words: Michaelis-Menten kinetics, uric acid oxidation, uricase (+)-pCBMA. The following applies: pH 8.5, 37° C. The class given is biochemical. The protocol: as §4, §8, §2, §9
Data set [10] concerns Uricase from Candida sp., neutral initiator (N)-pSMA. Briefly: Michaelis-Menten kinetics, uric acid oxidation, uricase (N)-pSMA. In kind it is biochemical. The settings on record: pH 8.5, 37° C. The protocol:
as §4, §8, §2, §9

The subject of data set [11] is Uricase from Candida sp., neutral initiator (N)-pCBMA. In words: Michaelis-Menten kinetics, uric acid oxidation, uricase (N)-pCBMA. In kind it is biochemical. The following applies: pH 8.5, 37° C. The method, then:
as §4, §8, §2, §9

Data set [12] has as its system Uricase from Candida sp., native. In words: Michaelis-Menten kinetics, uric acid oxidation, native uricase. The settings on record: pH 8.5, 37° C. The class given is biochemical. The method, then:
as §4, §7

In data set [13] the test system is Uricase from Candida sp., neutral initiator (N). Briefly: Michaelis-Menten kinetics, uric acid oxidation, uricase-neutral initiator. The following applies: pH 8.5, 37° C. The class given is biochemical. The protocol:
as §4, §6, §7

In data set [14] the test system is T1, C[C@H](NC(=O)CCC(=O)O)C(=O)N[C@@H](C)C(=O)N1CCC[C@H]1C(=O)N[C@@H](Cc1ccccc1)C(=O)Nc1ccc([N+](=O)[O-])cc1.
T1 construct: mature A, B and C chains of chymotrypsinogen A; unmodified
In words: Michaelis-Menten kinetics, Suc-AAPF-pNA hydrolysis, native CT. In kind it is biochemical, bovine. The settings on record: other: pH 8, 37° C. The method, then: as §4
CT: N-succinyl-Ala-Ala-Pro-Phe-p-nitroanilide (Suc-AAPF-pNA; SEQ ID NO:1) was used as a substrate for CT. Substrate (0-20 mg/mL in DMSO, 30 μL) was added to a 1.5 mL cuvette with sodium phosphate buffer (pH 8, 100 mM). Native CT, CT-initiators, and CT-polymers (0.1 mg/mL protein, 4 μM, 10 μL) was added to the cuvette with substrate and buffer. The initial substrate hydrolysis rate was measured in triplicate by recording the increase in absorbance at 412 nm over the first 60 seconds after mixing using a Lambda 2 Perkin Elmer ultraviolet-visible spectrometer equipped with a temperature-controlled cell holder at 37° C. Michaelis-Menten parameters were determined using nonlinear curve fitting of initial hydrolysis rate versus substrate concentration in GraphPad.
Michaelis-Menten kinetics were measured at pH 8 and 37° C. using Succinyl-Ala-Ala-Pro-Phe-p-nitroanilide (Suc-AAPF-pNA; SEQ ID NO:1), a hydrophobic and negatively charged substrate for CT that binds to the hydrophobic S1 binding pocket and is then cleaved by the catalytic triad (Ser 195, His 57, Asp 102). […] The observed decrease in KM upon neutral initiator attachment could have been the result of the hydrophobicity of the initiator. The partition coefficient (log D) of a lysine side chain at pH 8.0 is −1.00. After covalent attachment of the neutral initiator, the log D value of the new product rose to 1.82. […]

As for `C[C@H](NC(=O)CCC(=O)O)C(=O)N[C@@H](C)C(=O)N1CCC[C@H]1C(=O)N[C@@H](Cc1ccccc1)C(=O)Nc1ccc([N+](=O)[O-])cc1` [Suc-AAPF-pNA, N-succinyl-Ala-Ala-Pro-Phe-p-nitroanilide] (Suc-AAPF-pNA), the figures for the kcat/KM in [1] (CT-positive initiator-pCBMA), in [2] and in data set [3] were 420000 ± 20000 M⁻¹ s⁻¹, 200000 ± 10000 M⁻¹ s⁻¹ and 300000 ± 10000 M⁻¹ s⁻¹, respectively. Also, in [1] (CT-positive initiator-pCBMA vs native CT), the “overall catalytic efficiency versus native CT” value was “nearly double that of native CT”. Further, the turnover number (kcat) in data set [2] is 16.7 ± 0.4 s⁻¹. In data set [4], the “overall activity (kcat and KM) versus CT-neutral initiator-pSMA” value is roughly 20 fold. Further, the “change in KM versus native CT” value in [5] and in [6] was “decrease in KM by half” each time.
For the compound `O=c1[nH]c(=O)c2[nH]c(=O)[nH]c2[nH]1` [uric acid], the Km in data set [7] was determined as 25.4 ± 1.4 µM; in data set [9], 22 ± 7.6 µM; in data set [12] it was 12.9 ± 0.6 µM; in data set [13], 119 ± 9.7 µM. Further, the kcat in data set [7] was 2.14 ± 0.04 s⁻¹; in data set [8] it was “undetectable”; in data set [9] it was 0.03 ± 0.003 s⁻¹; in [10] it was “undetectable”; in data set [11] it was “undetectable”; in [12], 3.42 ± 0.05 s⁻¹. In data set [13], the kcat turned out to be 0.18 ± 0.01 s⁻¹. The kcat/KM in data set [7] was 84000 ± 5000 M⁻¹ s⁻¹; in [8], “undetectable”; in data set [9], 1000 ± 500 M⁻¹ s⁻¹; in [10], “undetectable”; in [11], “undetectable”; in data set [12] it was 266000 ± 13000 M⁻¹ s⁻¹. Besides, in data set [13], the kcat/KM was 2000 ± 600 M⁻¹ s⁻¹. Further, the KM entry in data set [8], in data set [10] and in [11] was “undetectable” each time.
For the compound “α-chymotrypsin (CT) from bovine pancreas (type II), native (Bos taurus)”, in data set [14], the Km is 107 ± 5 µM, the kcat was 26.6 ± 0.3 s⁻¹ and the kcat/Km worked out at 250000 ± 10000 M⁻¹ s⁻¹.

(Values after patent publication US12053529B2, “Amino-reactive positively charged ATRP initiators that maintain their positive charge during synthesis of biomacro-initiators” (Carnegie Mellon University, priority 2018, dated 2024).)
